Laboratory results reported in PubChem BioAssay (NCI).
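Growth conditions: 96-well plates. Treatment: test compound, 48 hours, 5 concentrations. Analysis: linear interpolation between bracketing concentrations; unreached endpoints set to highest concentration. The concentration for 50% growth inhibition is given as GI50. TGI: total growth inhibition.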

Experiments:
Assay in all cases: NCI anticancer screen, dose series, 48 h
[1] = test system: HT29 colon
[2] = test system: A549 NSCLC
[3] = test system: SF-539 CNS
[4] = test system: OVCAR-3 ovarian
[5] = test system: LOX IMVI melanoma
[6] = test system: SR leukemia
[7] = test system: SK-MEL-5 melanoma
[8] = test system: MDA-MB-435
[9] = test system: DU-145 prostate
[10] = test system: NCI-H522 lung
[11] = test system: A498 renal

Row | SMILES | TGI [1] [µM] | TGI [2] [µM] | TGI [3] [µM] | TGI [4] [µM] | TGI [5] [µM] | TGI [6] [µM] | TGI [7] [µM] | TGI [8] [µM] | TGI [9] [µM] | TGI [10] [µM] | TGI [11] [µM] | GI50 [1] [µM] | GI50 [8] [µM] | GI50 [2] [µM] | GI50 [3] [µM] | GI50 [11] [µM] | GI50 [9] [µM] | GI50 [4] [µM] | GI50 [10] [µM] | GI50 [7] [µM]
1 | CC(N)C(=O)OCN1C(=O)C2C3C=CC(C2C1=O)C1C2C(=O)N(COC(=O)C(C)N)C(=O)C2C31 (stereo not given) | > 100 | 77.7 | 47.2 | 91.5 | 35.8 | 29.3 | 34.1 |  |  |  |  |  |  |  |  |  |  |  |  | 
2 | CNC1C(O)C(NC)C2OC3(O)C(=O)CC(C)OC3OC2C1O (stereo not given) | > 100 | > 100 | > 100 | > 100 | > 100 | > 100 | > 100 | > 100 | > 100 | > 100 |  |  |  |  |  |  |  |  |  | 
3 | C1CCC(OCc2nnn3c2CCC3)OC1 (stereo not given) | > 100 | > 100 | > 100 | > 100 | > 100 | > 100 | > 100 |  |  | > 100 |  |  |  |  |  |  |  |  |  | 
4 | CCCCC(C(=O)N/N=C/c1ccc([N+](=O)[O-])o1)C(=O)N/N=C/c1ccc([N+](=O)[O-])o1 | 5.16 | 41.4 | 35.5 | 5.65 | 5.92 |  | 14.6 | 25.2 | 42.9 |  | 41 |  |  |  |  |  |  |  |  | 
5 | Cc1nc2c(O)cc3c4c(=O)n(C)c(=O)n(C)c4n(Cc4ccccc4)c3c2nc1C | 32.2 | 36.2 | 30 |  | 37.4 | 57.6 | 32.8 | 33.9 | > 100 |  | 81.7 |  |  |  |  |  |  |  |  | 
6 | Cc1cccc(O)c1-c1nnc(CCCCCCCCc2nnc(-c3c(C)cccc3O)n2N)n1N | > 100 | > 100 | > 100 | > 100 | > 100 | > 52.5 | > 100 | > 100 | > 100 | 97.2 | > 100 |  |  |  |  |  |  |  |  | 
7 | CO[C@H]1ON=C(c2c(C)cc(C)cc2C)[C@@H]1C1(c2ccccc2)ON=C(c2c(C)cc(C)cc2C)O1 (stereo not given in full) |  | > 100 | > 100 |  | > 100 | > 100 |  |  |  | > 100 |  |  |  |  |  |  |  |  |  | 
8 | [O-]c1c[n+](CCCC[n+]2cc([O-])on2)no1 | > 100 | > 100 | > 100 | > 100 | > 100 |  | > 100 | > 100 | > 100 | > 100 | > 100 |  |  |  |  |  |  |  |  | 
9 | C=C1C(=O)OC2/C=C(\C)C3OC3/C=C(/C(=O)OC)C(O)C(OC(=O)C3(C)OC3C)C12 (stereo not given) | 3.63 | 32 | 5.46 | 10 | 3.75 | 3.05 | 3.42 |  |  | 0.6 | 19.6 |  |  |  |  |  |  |  |  | 
10 | COc1ccc(CC2c3cc(OC)c(OC)c(OC)c3CC[N+]2(C)C)cc1Oc1ccc(CC2c3cc4c(c(OC)c3CC[N+]2(C)C)OCO4)cc1 (stereo not given) | > 100 | > 100 |  |  | > 100 | > 100 | > 100 | > 100 | > 100 | > 100 | > 100 |  |  |  |  |  |  |  |  | 
11 | CC(C)OC(=O)Nc1cccc(Cl)c1 | > 100 | > 100 | > 100 | > 100 | > 100 | > 100 | > 100 | > 100 | > 100 |  |  |  |  |  |  |  |  |  |  | 
12 | Cn1cc(-c2csc(-c3cn(C)c4ccc(Br)cc34)n2)c2cnccc21 | 3.09 | 3.48 | 3.23 | 3.49 |  |  | 3.09 | 3.22 | 3.17 | 3.44 | 3.67 | 1.6 | 1.76 | 1.83 | 1.8 | 1.78 | 1.74 | 1.89 | 1.76 | 1.7
13 | Cc1ccc(S(=O)(=O)N2c3ccccc3[C@H]3CCc4c([nH]c5ccccc45)[C@H]32)cc1 | > 100 | > 100 | > 100 | > 100 | > 100 |  | > 100 | > 100 | > 100 |  |  |  |  |  |  |  |  |  |  | 
14 | C[C@H]1C(=O)O[C@@H]1[C@H]1COC(C)(C)O1 |  | > 100 | > 100 | > 100 |  | > 100 |  | > 100 |  |  | > 100 |  |  |  |  |  |  |  |  | 
15 | CCN1CCN(c2nc3ccccc3nc2C(=O)c2ccc(OC)cc2)CC1 | > 100 | > 100 | > 100 | > 100 | > 100 | 93.4 | > 100 | > 100 | > 100 | > 100 | > 100 |  |  |  |  |  |  |  |  | 
16 | COC(=O)C(=O)C(C(=O)C1=NS(=O)(=O)c2cc(S(N)(=O)=O)c(Cl)cc2N1)c1nc2ccc(C(=O)c3ccccc3)cc2[nH]c1=O (stereo not given) | > 100 | > 100 | > 100 |  |  | > 100 | > 100 |  |  | > 100 | > 100 |  |  |  |  |  |  |  |  | 
17 | CN1C(=O)CN2C(Cl)(Cl)C2(c2ccccc2F)c2cc([N+](=O)[O-])ccc21 (stereo not given) | > 100 |  |  | > 100 | > 100 | > 100 | > 100 |  |  | > 100 |  |  |  |  |  |  |  |  |  | 
18 | c1ccc(CSC2(SCc3ccccc3)CCCC2)cc1 | > 10 | > 10 | > 10 | > 10 | > 10 | > 10 | > 10 | > 10 | > 10 | > 10 | > 10 |  |  |  |  |  |  |  |  | 
19 | Cc1cc(S(=O)(=O)NC(=C(C#N)C#N)[n+]2ccc(N(C)C)cc2)c([S-])cc1Cl | > 100 | > 100 | > 100 | > 100 |  | > 100 | > 100 | > 100 | > 100 | > 100 | > 100 |  |  |  |  |  |  |  |  | 
20 | NC(=O)c1ccc(NS(=O)(=O)c2ccc(N)cc2)nc1 | > 100 |  |  | > 100 | > 100 |  | > 100 | > 100 | > 100 |  | > 100 |  |  |  |  |  |  |  |  | 
21 | Nc1nc(Cl)cc(NCCCNc2cc(Cl)nc(N)n2)n1 | > 100 | > 100 | > 100 | > 100 | > 100 | > 100 | > 100 |  |  |  | > 100 |  |  |  |  |  |  |  |  | 
22 | Cc1ccccc1[P+](C)(c1ccccc1C)c1ccccc1C | 19.1 | 55.4 | 40.8 | 23.6 | 30.5 |  | 16.8 | 21 | > 100 | 21.6 | 49.9 |  |  |  |  |  |  |  |  | 
23 | CN(C)CCCNC(=O)c1cc(NC(=O)c2cc(NS(=O)(=O)c3ccc4c(c3)C(=O)c3ccccc3C4=O)cn2C)cn1C | > 100 | > 100 | > 100 | > 100 | > 100 | > 100 | > 100 | > 100 | > 100 | > 100 | > 100 |  |  |  |  |  |  |  |  | 
24 | CC1=C(C#N)C23C(=O)c4ccccc4C(O)=C2C(=O)C=CC3(O)N1 (stereo not given) | 5.02 | > 100 | 8.83 | > 100 | 18.9 | 1.5 | 2.75 | 9.37 | 7.69 | 4.81 | 37.6 |  |  |  |  |  |  |  |  | 
